Laboratory results published in patent US8119116B2, “Therapeutics for cancer using 3-bromopyruvate and other selective inhibitors of ATP production” (John Hopkins University School of Medicine, priority 2001, dated 2012).

Tests used:
[1] = system: liver implanted VX2 tumors; assay: Direct intraarterial injection into liver implanted VX2 tumors, tumor histology; assay type: in vivo, rabbit; settings: single intraarterial injection
Description: The rabbit VX2 tumor was selected for implantation in the liver because of the similarities of its blood supply to that of human hepatomas. Other attributes of this tumor include rapid tumor growth, development of a sizable tumor that can be readily identified by x-ray imaging (fluoroscopy), and a biochemical phenotype characteristic of advanced stage tumors, i.e., high glycolysis and elevated levels of mitochondrial bound hexokinase. In addition, the rabbit is large enough that selective manipulation of catheters in the hepatic artery from the common femoral artery for delivery of agents is possible. Adult New Zealand white rabbits (32 total, Robinson Services, Inc.) weighing 3.5-4.2 kg were used. Studies with these animals were approved by the Johns Hopkins University Animal Care and Use Committee and carried out according to their guidelines. For successful implantation of the VX2 tumor into the liver, it was first grown for 2 weeks on the hind leg of a carrier rabbit. Each carrier rabbit was used to supply tumor cells for implantation into the left lobe of the liver of 2 separate rabbits. All animals, carriers and recipients, were anesthetized with a mixture of acepromazine (2.5 mg/kg) and ketamine hydrochloride (44 mg/kg) administered intramuscularly. Intravenous access was gained via a marginal ear vein and sodium pentothal was given intravenously to maintain anesthesia. The VX2 tumor was then excised from the carrier rabbit and placed in Hanks solution. Chunks of the tumor were minced in the same solution. Then, the abdomens of the recipient rabbits were shaved and prepped with betadine after which a midline subxyphoid incision was made. The anterior surface of the liver was exposed and tumor cells (0.1-0.2 ml) from the minced donor tumor were directly implanted onto the left lobe of the liver using the outer cannula of a 21-gauge angiocatheter. This method allows the growth of a single solitary, well-demarcated tumor in the liver of each recipient rabbit. The abdomen was closed in 2 layers. Proper aseptic technique was rigorously observed during each implantation. After surgery, animals were returned to their cages, kept warm with blankets, and monitored in the animal laboratory under the direct supervision of a physician or a technician until they recovered from anesthesia. […] The tumors were allowed to grow for another 14 days at which time they reached an ellipsoidal shape with dimension of approximately 1.5×1.8×2.5 cm. […]
Administration of anesthesia, intravenous access and sodium pentothal anesthesia were carried out as described in Example 12. […] The tumor could readily be visualized as a region of hypervascular blush located on the left side of the liver near the gastric fundus. […]

[2] = system: rabbits harboring liver implanted VX2 tumors; assay: Systemic delivery via marginal ear vein, animal toxicity; assay type: in vivo, rabbit; settings: 25 ml, 0.5 mM via a marginal ear vein
Experimental: (§1) Normal tissues and tumors were fixed in 10% formalin, sliced at […] intervals for gross examination, and then embedded completely in paraffin after which […] sections were stained with hemotoxylin and eosin. Tumor viability was estimated by visual inspection and expressed as a percentage of viable tumor area for each slice. The overall percentage of viable tumor in each rabbit was calculated.
(§2) Finally, it was important to examine the effect of 3-BrPA when delivered systemically (i.e., via the general circulation) on both animal toxicity and its capacity to damage liver implanted tumors.

[3] = system: VX2 tumor slices; assay: Glycolysis (lactic acid formation) in VX2 tumor slices; assay type: cell-based, rabbit
Experimental: Glycolysis was assayed by monitoring the formation of lactic acid following the addition of glucose to a medium containing VX2 tumor slices. Specifically, freshly excised tumors were washed 3 times at 4° C. in 20 ml Chance Hess Medium containing 6.2 mM KCl, 154 mM NaCl, and 11 mM NaPi, pH 7.4. Slices, 1 g each, were then prior incubated for 30 min in a Lab-Line incubator-shaker at 37° C. in 2 ml of the same medium while shaking at 50 rpm. Glucose was then added to give a final concentration of 6 mM, after which the incubation/shaking process was continued with 0.2 ml samples being removed every 30 min for up to 2 h. These samples were subjected to centrifugation at 14,000 rpm in an Eppendorf Centrifuge (Model 5415C). Then, aliquots of the supernatant, 0.01 ml, were removed from each sample, diluted with 0.03 ml of water and subjected to lactic acid determination using the kit supplied by Sigma. The latter contains, in addition to lactic dehydrogenase and NAD+, hydrazine, and glycine buffer, pH 9.2. The mixture was incubated for 30 min at 25° C. after which the absorbance due to formation of NADH was determined at 340 nm using a Gilford Model 260 spectrophotometer. To assess the elevation of the glycolytic activity of the VX2 tumor over that of liver tissue, parallel studies were always carried out in an identical manner with 1 g liver slices derived from the host liver. Finally, in those cases where agents were tested for their capacity to inhibit glycolysis, these were introduced into the system at the prior incubation step with all subsequent steps being run in parallel with those described above for the VX2 tumor or liver alone.
The screen included the following 9 compounds: 2-deoxyglucose (2DOG), 2-fluoro-2-deoxyglucose, 6-fluoro-6-deoxyglucose, 3-O-methyl glucose, 5-thio-D-glucose-6-phosphate, L-glucose, D-xylose, D-lyxose, and 3-bromopyruvic acid (3BrPA). The screen was conducted by incubating VX2 tumor slices in a medium containing 6 mM glucose with 6 mM of each of these agents at 37° C. for 5 h. The use of 6 mM glucose in the medium was used to mimic the maximal amount of glucose that might be in the blood in a real in vivo situation.
With the above preliminary data at hand, only two of the 9 compounds screened were studied in more detail. One was 2DOG because under certain conditions it is known to inhibit glycolysis when it is phosphorylated by hexokinase to 2DOG-6-P which cannot be further metabolized. The other compound tested in more detail was 3BrPA because of its effectiveness as a glycolytic inhibitor in the preliminary screen.

[4] = system: "metastatic" lung tumors; assay: Systemic delivery via marginal ear vein, effect on metastatic lung tumors; assay type: in vivo, rabbit; settings: 25 ml, 0.5 mM, 4 days
Experimental: as §1, §2

In the case of O=C(O)C(=O)CBr [3BrPA, 3-bromopyruvic acid], the “maximal number of non-viable cells observed in any one experiment” value [1] is reported as 90%, the “total non-viable cells in the tumor” value ([1]; 25 ml 0.5 mM, 4 days) is reported as 84±5% and the “viable cells in the tumor” value ([1]; 25 ml 0.5 mM, 4 days) is reported as 16±5%. For the same compound, the “necrosis in tumor sections outside the central core region” value ([1]; 4 days) was about 100%, the animal behavior [2] was “normal behavior” and the “histological examination of 9 major tissues” value ([2]; 4 days) was “no obvious damage”. For the same compound, the “inhibition of VX2 tumor glycolysis in the limited screen” value ([3]; 6 mM agent, 6 mM glucose, 37° C., 5 h) was “almost completely inhibited”, the IC50 ([3]; Oryctolagus cuniculus, 0.5 h, read-out: half maximal inhibition of glycolysis) was 2400 µM and the “concentration for maximal or complete inhibition of glycolysis” value ([3]; VX2 tumor slices, agent prior incubated 30 min at 37° C.) was “about 15 mM”. The “size of secondary tumors in the lungs” value [4] was “only very small tumors” and the “"metastatic" lung tumors greater than 1 mm in diameter” value ([4]; 5 in untreated animals) was “almost complete disappearance and none”.
